According to US20060062729A1, “Enhanced ligand binding to neurotensin receptors” (priority 2004, published 2006):
pEC50, pIC50, pKd: −log10 of the molar value. “And” between values parts separate entries of the source, which are not always exact repeats. Equal entries are not always repeated. No end group written: not given here.

Tests used:
[1] = tested on: PC3 cells; experiment: ATP-induced IP formation in PC3 cells; assay type: cell-based; conditions: maximal dose of ATP (10 μM)
[2] = target: T1, 5-LOX (Homo sapiens, UniProt P09917); conditions: range of reported values, various blood cell systems; cited from earlier work
T1 sequence (P09917 1-674): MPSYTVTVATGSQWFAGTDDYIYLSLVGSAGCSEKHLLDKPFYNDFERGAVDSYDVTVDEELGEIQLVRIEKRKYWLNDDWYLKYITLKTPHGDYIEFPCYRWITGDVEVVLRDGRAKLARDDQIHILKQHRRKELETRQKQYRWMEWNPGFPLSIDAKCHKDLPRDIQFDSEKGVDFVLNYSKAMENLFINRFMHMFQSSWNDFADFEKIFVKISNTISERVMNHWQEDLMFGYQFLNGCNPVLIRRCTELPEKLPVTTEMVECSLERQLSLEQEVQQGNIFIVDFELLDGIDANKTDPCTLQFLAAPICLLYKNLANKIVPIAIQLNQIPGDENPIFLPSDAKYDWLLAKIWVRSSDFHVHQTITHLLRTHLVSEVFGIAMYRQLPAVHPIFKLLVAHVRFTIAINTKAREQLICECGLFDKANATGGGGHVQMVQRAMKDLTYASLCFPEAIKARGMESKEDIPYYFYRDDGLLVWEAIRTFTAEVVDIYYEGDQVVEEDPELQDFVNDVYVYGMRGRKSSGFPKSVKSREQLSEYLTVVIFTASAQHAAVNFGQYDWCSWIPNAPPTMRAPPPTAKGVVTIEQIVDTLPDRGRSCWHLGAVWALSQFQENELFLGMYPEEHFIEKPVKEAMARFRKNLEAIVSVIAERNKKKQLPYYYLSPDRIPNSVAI

[3] = target: T2, EGF receptor (Homo sapiens, UniProt P00533); experiment: ^125I-EGF binding to PC3 cells; conditions: PC3 cells (text to Table 9)
T2 construct: endogenous in cells; host or cells: PC3 cells (ATCC)

[4] = target: T3, bombesin receptor (Homo sapiens, UniProt P30550); experiment: ^125I-[Nle^14]-bombesin binding to PC3 cells; conditions: for Specific Binding (% control) of ^125I-[Nle14]-bombesin: 37° C.
T3 construct: endogenous in cells; host or cells: PC3 cells (ATCC)

[5] = target: T4, NTR1 (Homo sapiens, UniProt P30989); experiment: UV crosslinking of ^125I-(4-azido-Phe^6)-NT into immunoprecipitated NTR1 of PC3 cells; assay type: binding; set-up: Ab-NTR1 detected two major bands in extracts of PC3 cells, the parent protein of 50 kDa; endogenous in cells; host or cells: PC3 cells (ATCC); conditions: 50 μM agent
[6] = target: T4, NTR1; experiment: ^125I-NT binding to isolated PC3 cell membranes; set-up: Ab-NTR1 detected two major bands in extracts of PC3 cells, the parent protein of 50 kDa; endogenous in cells; host or cells: PC3 cells (ATCC)
[7] = target: T4, NTR1; experiment: ^125I-NT binding to PC3 cells
[8] = target: T4, NTR1; assay type: cell-based; set-up: Ab-NTR1 detected two major bands in extracts of PC3 cells, the parent protein of 50 kDa; endogenous in cells; host or cells: PC3 cells (ATCC); conditions: 50 μM agent, 37° C., ^125I-NT prebound at 4° C.
[9] = target: T4, NTR1; experiment: NT-induced IP formation in PC3 cells; assay type: cell-based; set-up: Ab-NTR1 detected two major bands in extracts of PC3 cells, the parent protein of 50 kDa; endogenous in cells; host or cells: PC3 cells (ATCC); conditions: maximal % decrease in NT-induced IP formation
[10] = target: neurotensin-2 receptor (NTR2) (Homo sapiens, UniProt O95665); conditions: read-out: binding affinity; cited from earlier work
[11] = target: neurotensin-1 receptor (NTR1) (Homo sapiens, UniProt P30989); conditions: read-out: binding affinity; cited from earlier work
Sequence of neurotensin-1 receptor (NTR1) (P30989 whole entry, species assumed): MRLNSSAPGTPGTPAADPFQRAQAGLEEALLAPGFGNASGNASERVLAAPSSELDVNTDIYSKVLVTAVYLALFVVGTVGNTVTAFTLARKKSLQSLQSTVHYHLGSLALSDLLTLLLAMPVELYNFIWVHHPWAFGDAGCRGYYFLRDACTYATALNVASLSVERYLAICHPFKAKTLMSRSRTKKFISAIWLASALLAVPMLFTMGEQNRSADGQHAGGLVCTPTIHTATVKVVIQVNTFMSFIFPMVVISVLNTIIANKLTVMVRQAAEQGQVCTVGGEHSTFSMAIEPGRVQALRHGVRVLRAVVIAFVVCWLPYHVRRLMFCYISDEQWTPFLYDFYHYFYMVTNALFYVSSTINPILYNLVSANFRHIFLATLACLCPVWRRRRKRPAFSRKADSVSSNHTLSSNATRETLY

T3 sequence (P30550 whole entry): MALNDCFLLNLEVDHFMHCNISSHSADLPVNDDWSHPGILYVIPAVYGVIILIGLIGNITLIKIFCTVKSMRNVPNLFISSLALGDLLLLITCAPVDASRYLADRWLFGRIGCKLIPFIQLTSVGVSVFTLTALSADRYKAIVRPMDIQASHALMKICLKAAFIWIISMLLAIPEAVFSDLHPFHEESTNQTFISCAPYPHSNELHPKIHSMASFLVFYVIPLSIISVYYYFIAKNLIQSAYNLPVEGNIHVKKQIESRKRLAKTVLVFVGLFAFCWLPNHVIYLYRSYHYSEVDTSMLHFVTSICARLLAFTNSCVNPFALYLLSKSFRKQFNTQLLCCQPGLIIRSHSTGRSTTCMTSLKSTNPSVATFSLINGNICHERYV
T4 sequence (P30989 whole entry): as the sequence (P30989 whole entry, species assumed) above
T2 sequence (P00533 25-1210): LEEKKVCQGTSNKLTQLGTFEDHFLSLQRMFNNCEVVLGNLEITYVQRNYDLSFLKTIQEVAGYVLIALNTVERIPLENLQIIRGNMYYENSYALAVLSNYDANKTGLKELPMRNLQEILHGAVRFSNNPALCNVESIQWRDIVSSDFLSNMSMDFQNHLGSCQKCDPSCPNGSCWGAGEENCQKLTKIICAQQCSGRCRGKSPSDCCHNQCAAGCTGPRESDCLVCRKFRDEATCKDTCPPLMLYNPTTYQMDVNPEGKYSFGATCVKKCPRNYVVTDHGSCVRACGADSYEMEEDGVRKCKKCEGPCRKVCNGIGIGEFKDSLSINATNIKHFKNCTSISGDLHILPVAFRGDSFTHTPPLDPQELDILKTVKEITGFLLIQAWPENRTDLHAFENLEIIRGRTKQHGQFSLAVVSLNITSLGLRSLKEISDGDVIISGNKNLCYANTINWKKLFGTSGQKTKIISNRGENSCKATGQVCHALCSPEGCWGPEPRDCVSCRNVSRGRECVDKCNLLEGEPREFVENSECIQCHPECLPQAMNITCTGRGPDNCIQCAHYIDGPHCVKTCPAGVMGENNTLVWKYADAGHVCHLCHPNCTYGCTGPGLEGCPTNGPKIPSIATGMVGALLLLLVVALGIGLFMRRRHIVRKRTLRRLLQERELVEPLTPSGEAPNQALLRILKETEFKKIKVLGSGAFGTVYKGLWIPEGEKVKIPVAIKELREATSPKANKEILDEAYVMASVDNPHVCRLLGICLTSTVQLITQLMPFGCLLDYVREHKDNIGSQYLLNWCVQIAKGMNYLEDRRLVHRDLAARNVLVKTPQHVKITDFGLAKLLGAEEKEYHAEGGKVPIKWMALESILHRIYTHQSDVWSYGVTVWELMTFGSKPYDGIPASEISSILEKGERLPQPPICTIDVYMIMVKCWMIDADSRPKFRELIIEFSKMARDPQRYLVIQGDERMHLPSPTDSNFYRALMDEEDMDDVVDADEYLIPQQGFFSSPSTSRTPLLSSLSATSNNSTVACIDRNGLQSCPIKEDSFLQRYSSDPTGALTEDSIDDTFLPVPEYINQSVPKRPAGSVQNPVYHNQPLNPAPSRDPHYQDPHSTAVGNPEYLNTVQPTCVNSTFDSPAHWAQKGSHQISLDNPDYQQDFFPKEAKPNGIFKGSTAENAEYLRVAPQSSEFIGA
Sequence of neurotensin-2 receptor (NTR2) (O95665 whole entry, species assumed): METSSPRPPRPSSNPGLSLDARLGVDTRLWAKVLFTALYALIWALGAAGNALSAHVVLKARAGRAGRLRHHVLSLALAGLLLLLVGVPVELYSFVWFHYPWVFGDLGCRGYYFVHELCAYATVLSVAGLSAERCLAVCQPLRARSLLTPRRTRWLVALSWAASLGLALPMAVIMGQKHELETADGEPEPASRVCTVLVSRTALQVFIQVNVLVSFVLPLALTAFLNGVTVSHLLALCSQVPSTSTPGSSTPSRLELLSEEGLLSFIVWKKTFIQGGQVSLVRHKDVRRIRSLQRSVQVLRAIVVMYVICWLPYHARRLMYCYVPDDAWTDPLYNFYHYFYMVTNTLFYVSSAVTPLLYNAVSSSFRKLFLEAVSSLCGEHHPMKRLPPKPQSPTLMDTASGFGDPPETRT

With `Nc1ncnc2c1ncn2[C@@H]1O[C@H](COP(=O)(O)OP(=O)(O)OP(=O)(O)O)[C@@H](O)[C@H]1O` [ATP] the “stimulation of IP formation” value [1] was ~17 fold and > 15 fold.

For `CC(C)c1ccc2c(c1)c(SC(C)(C)C)c(CC(C)(C)C(=O)O)n2Cc1ccc(Cl)cc1` [MK886], the pIC50 [2] is given as 6.00 to 7.00, the “increase in EGF binding” value [3] is given as 65% and the “Specific Binding (% control) of ^125I-[Nle14]-bombesin” value ([4]; 12 μM LOX blocker) is given as 106 ± 5 % control. The “Specific Binding (% control) of ^125I-[Nle14]-bombesin” value ([4]; 60 μM LOX blocker) was 125 ± 7 % control, the “radioactivity associated with NTR1” value [5] was 2.7±0.3 fold and the “Specific NT-Binding (% control)” value ([6]; 10 μM LOX pathway blocker) was 99 ± 3 % control. For the same compound, the “Specific NT-Binding (% control)” value ([6]; 25 μM LOX pathway blocker) was 107 ± 4 % control, the “Specific NT-Binding (% control)” value ([6]; 75 μM LOX pathway blocker) was 97 ± 4 % control and the “NT Binding Efficacy % increase” value ([7]; LOX blockers) was 210 % increase. For the same compound, the “maximal increase in NT binding to PC3 cells” value ([7]; as much as / up to, dose-response) was ≤ 3.0 fold and the pEC50 ([7]; read-out: NT Binding EC50, [agent] giving 100% increase in NT binding) was 4.74.

For `O=C(CCc1ccc(O)cc1)c1c(O)cc(O)cc1O` [Phloretin], the Internalization rate [8] was 8.1±0.7 %/minute, the “Specific Binding (% control) of ^125I-[Nle^14]-bombesin” value ([4]; 12 μM agent) was 104 ± 3 % control and the “Specific Binding (% control) of ^125I-[Nle^14]-bombesin” value ([4]; 60 μM agent) was 111 ± 4 % control. The “Specific NT-Binding (% control)” value ([6]; 10 μM agent, 22° C., 60 minutes) was 110 ± 7 % control, the “Specific NT-Binding (% control)” value ([6]; 25 μM agent) was 105 ± 8 % control and the “Specific NT-Binding (% control)” value ([6]; 75 μM agent) was 97 ± 8 % control. For the same compound, the “IP Formation Efficacy (% decrease)” value [9] was 70 % decrease and the “NT Binding Efficacy % increase” value ([7]; maximal % increase in NT binding observed for each agent) was 186 % increase.

For “Trp 11 NT(1-13): peptide identical to NT (1-13) except tryptophan for tyrosine at amino acid 11 (QLYENKPRRPWIL; ends and bridges not checked; UniProt P30990 151-163, looked up, variant Y11W)”, the pKd [10] is listed as ~7.57 and the pKd [11] is listed as ~9.00.
